Measurements as given in US20220062240A1, “METHODS OF TREATING CANCER USING A CLK INHIBITOR” (BioSplice Therapeutics, Inc., priority 2018, published 2022).
Like-named read-outs stand apart in the source and are kept apart here.

Assays:
[1] = system: pancreatic cancer (8 cell lines); experiment: CellTiter-Glo Viability Assay, pancreatic cancer; assay type: cell-based; details: Homo sapiens, inhibition of cancer cell proliferation
[2] = system: lung cancer (4 cell lines); experiment: CellTiter-Glo Viability Assay, lung cancer; assay type: cell-based; details: Homo sapiens, inhibition of cancer cell proliferation
[3] = system: ovarian cancer (4 cell lines); experiment: CellTiter-Glo Viability Assay, ovarian cancer; assay type: cell-based; details: Homo sapiens, inhibition of cancer cell proliferation
CLK2 = target: T1, CLK2 (Homo sapiens, UniProt P49760); experiment: CLK2 kinase activity assay (Z-lyte, Ser/Thr 6 peptide); assay type: biochemical; details: recombinant CLK2 kinase, ATP 60 μM; read-out: EC50
T1 construct: purchased Thermo Fisher (Life Technologies), Z'-LYTE Kinase Assay Kits
T1 sequence (P49760 whole entry): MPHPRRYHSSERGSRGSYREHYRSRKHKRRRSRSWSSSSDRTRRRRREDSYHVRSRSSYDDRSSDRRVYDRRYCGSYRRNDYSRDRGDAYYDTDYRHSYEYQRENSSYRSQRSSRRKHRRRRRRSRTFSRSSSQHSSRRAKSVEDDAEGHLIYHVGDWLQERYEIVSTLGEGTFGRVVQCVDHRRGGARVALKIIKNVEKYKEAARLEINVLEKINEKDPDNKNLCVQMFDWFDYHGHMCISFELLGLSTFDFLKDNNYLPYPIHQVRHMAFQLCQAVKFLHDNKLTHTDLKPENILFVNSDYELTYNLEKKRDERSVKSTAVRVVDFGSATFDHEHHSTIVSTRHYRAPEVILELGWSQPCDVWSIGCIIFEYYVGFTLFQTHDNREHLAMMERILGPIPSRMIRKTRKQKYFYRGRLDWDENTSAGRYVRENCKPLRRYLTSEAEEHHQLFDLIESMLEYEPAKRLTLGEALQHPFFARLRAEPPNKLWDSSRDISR
Protocol: All reactions were performed in duplicate.

all 50 cell lines = experiment: CellTiter-Glo Viability Assay, average across all cell lines; assay type: cell-based; details: Homo sapiens; across all 50 cell lines; read-out: average EC50 for inhibition of cancer cell proliferation
In short: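 Proliferation of a multi-tissue human cancer line panel is assessed over four days at 37° C and 5% CO2, seeding 300-3,000 cells/well. Viability is quantified by CellTiter-Glo luminescence, and EC50 values are calculated.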

MDA-MB-231-Luc = experiment: CellTiter-Glo Viability Assay, breast cancer; assay type: cell-based; details: Homo sapiens, 96 h; MDA-MB-231-Luc, breast cancer, four days; read-out: EC50
BT-549 = experiment: CellTiter-Glo Viability Assay, breast cancer; assay type: cell-based; details: Homo sapiens, 96 h; BT-549, breast cancer, four days; read-out: EC50
MCF7 = experiment: CellTiter-Glo Viability Assay, breast cancer; assay type: cell-based; details: Homo sapiens, 96 h; MCF7, breast cancer, four days; read-out: EC50
T47D = experiment: CellTiter-Glo Viability Assay, breast cancer; assay type: cell-based; details: Homo sapiens, 96 h, breast cancer, four days, read-out: EC50
DU4475 = experiment: CellTiter-Glo Viability Assay, breast cancer; assay type: cell-based; details: Homo sapiens, DU-4475, 96 h; DU4475, breast cancer, four days; read-out: EC50
HCC1599 = experiment: CellTiter-Glo Viability Assay, breast cancer; assay type: cell-based; details: Homo sapiens, 96 h; HCC1599, breast cancer, four days; read-out: EC50
ZR-75-1 = experiment: CellTiter-Glo Viability Assay, breast cancer; assay type: cell-based; details: Homo sapiens, 96 h; ZR-75-1, breast cancer, four days; read-out: EC50
CAMA1 = experiment: CellTiter-Glo Viability Assay, breast cancer; assay type: cell-based; details: Homo sapiens, CAMA-1, 96 h; CAMA1, breast cancer, four days; read-out: EC50
CLK3 = CLK3 (Homo sapiens, UniProt P49761); experiment: CLK3 kinase activity assay (Z-lyte, Ser/Thr 18 peptide)
CLK3, sequence (P49761 whole entry): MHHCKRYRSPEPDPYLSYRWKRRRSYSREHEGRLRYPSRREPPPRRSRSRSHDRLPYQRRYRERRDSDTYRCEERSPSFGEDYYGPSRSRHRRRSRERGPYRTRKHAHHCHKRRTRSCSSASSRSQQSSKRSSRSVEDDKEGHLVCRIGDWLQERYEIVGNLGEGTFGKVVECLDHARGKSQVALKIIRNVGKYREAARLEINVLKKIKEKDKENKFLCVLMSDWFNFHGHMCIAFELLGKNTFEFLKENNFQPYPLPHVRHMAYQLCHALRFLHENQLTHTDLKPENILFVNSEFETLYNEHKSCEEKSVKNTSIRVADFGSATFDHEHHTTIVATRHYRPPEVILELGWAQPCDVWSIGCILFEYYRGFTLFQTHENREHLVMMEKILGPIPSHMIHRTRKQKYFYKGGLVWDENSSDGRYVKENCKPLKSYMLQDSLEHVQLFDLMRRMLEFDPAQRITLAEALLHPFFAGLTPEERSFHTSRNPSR

[4] = system: liver cancer (3 cell lines); experiment: CellTiter-Glo Viability Assay, liver cancer; assay type: cell-based; details: Homo sapiens, inhibition of cancer cell proliferation
[5] = system: haematopoietic & lymphoid tumors (13 cell lines); experiment: CellTiter-Glo Viability Assay, haematopoietic & lymphoid tumors; assay type: cell-based; details: Homo sapiens, inhibition of cancer cell proliferation
[6] = system: prostate cancer (5 cell lines); experiment: CellTiter-Glo Viability Assay, prostate cancer; assay type: cell-based; details: Homo sapiens
[7] = system: colorectal cancer (6 cell lines); experiment: CellTiter-Glo Viability Assay, colorectal cancer; assay type: cell-based; details: Homo sapiens, inhibition of cancer cell proliferation
[8] = BXPC-3, BxPC3 cell line, read-out: Pancreatic cancer, EC50 BxPC3
[9] = CAPAN-1, Capan1 cell line, read-out: Pancreatic cancer, EC50 Capan1
[10] = Capan-2, Capan2 cell line, read-out: Pancreatic cancer, EC50 Capan2
[11] = MIA PaCa-2 cell line, read-out: Pancreatic cancer, EC50 MIA PaCa-2
[12] = PANC 05.04 cell line, read-out: Pancreatic cancer, EC50 PANC 05.04
[13] = PANC-1 cell line, read-out: Pancreatic cancer, EC50 PANC-1
[14] = UPAFII cell line, read-out: Pancreatic cancer, EC50 UPAFII
[15] = A-427, A427 cell line, read-out: Lung cancer, EC50 (μM) A427
[16] = HCC78, HCC-78 cell line, read-out: Lung cancer, EC50 (μM) HCC-78
[17] = NCI-H460 cell line, read-out: Lung cancer, EC50 (μM) NCI-H460
[18] = NCI-H522 cell line, read-out: Lung cancer, EC50 (μM) NCI-H522
[19] = PA-1, PA1 cell line, read-out: Ovarian cancer, EC50 (μM) PA1
[20] = TOV112D, TOV-112D cell line, read-out: Ovarian cancer, EC50 (μM) TOV-112D
[21] = OV-90 cell line, read-out: Ovarian cancer, EC50 (μM) OV-90
[22] = OVCAR-3 cell line, read-out: Ovarian cancer, EC50 (μM) OVCAR-3
[23] = SNU-398, SNU398 cell line, read-out: Liver cancer, EC50 SNU398
[24] = HEPG2 cell line, read-out: Liver cancer, EC50 HEPG2
[25] = PLC/PRF/5 cell line, read-out: Liver cancer, EC50 PLC/PRF/5
[26] = DND41, DND-41 cell line, read-out: Haematopoietic & Lymphoid tumors, EC50 (μM) DND-41
[27] = MV4-11, MV-4-11 cell line, read-out: Haematopoietic & Lymphoid tumors, EC50 (μM) MV-4-11
[28] = Rec1, REC-1 cell line, read-out: Haematopoietic & Lymphoid tumors, EC50 (μM) REC-1
[29] = SU-DHL-4, SUDHL4 cell line, read-out: Haematopoietic & Lymphoid tumors, EC50 (μM) SUDHL4
[30] = HL-60 cell line, read-out: Haematopoietic & Lymphoid tumors, EC50 (μM) HL-60
[31] = JM1 cell line, read-out: Haematopoietic & Lymphoid tumors, EC50 (μM) JM1
[32] = JURKAT, Clone E6-1 cell line, read-out: Haematopoietic & Lymphoid tumors, EC50 (μM) JURKAT, Clone E6-1
[33] = JeKo-1 cell line, read-out: Haematopoietic & Lymphoid tumors, EC50 (μM) JeKo-1
[34] = KASUMI-1 cell line, read-out: Haematopoietic & Lymphoid tumors, EC50 (μM) KASUMI-1
[35] = Loucy cell line, read-out: Haematopoietic & Lymphoid tumors, EC50 (μM) Loucy
[36] = MOLT-4 cell line, read-out: Haematopoietic & Lymphoid tumors, EC50 (μM) MOLT-4
[37] = TF-1 cell line, read-out: Haematopoietic & Lymphoid tumors, EC50 (μM) TF-1
[38] = TOLEDO cell line, read-out: Haematopoietic & Lymphoid tumors, EC50 (μM) TOLEDO
[39] = DU-145, read-out: Prostate cancer EC50 Du-145
[40] = PC-3, PC3 cell line, inhibition of cancer cell proliferation, read-out: Prostate cancer EC50 PC3
[41] = 22Rv1 cell line, inhibition of cancer cell proliferation, read-out: Prostate cancer EC50 22Rv1
[42] = LNCap clone FGC cell line, inhibition of cancer cell proliferation, read-out: Prostate cancer EC50 LNCap clone FGC
[43] = VCaP (Sigma) cell line, inhibition of cancer cell proliferation, read-out: Prostate cancer EC50 VCaP (Sigma)
[44] = HCT-116, HCT116 cell line, read-out: Colorectal cancer, EC50 (μM) HCT116
[45] = HT-29, HT29 cell line, read-out: Colorectal cancer, EC50 (μM) HT29
[46] = SW-620, SW620 cell line, read-out: Colorectal cancer, EC50 (μM) SW620
[47] = DLD-1 cell line, read-out: Colorectal cancer, EC50 (μM) DLD-1
[48] = SW48 cell line, read-out: Colorectal cancer, EC50 (μM) SW48
[49] = SW480 cell line, read-out: Colorectal cancer, EC50 (μM) SW480

For `Cc1cc2ncc(-c3ccc4cnc(NC(=O)c5ccnc(N6CCN(C)CC6)c5)cc4c3)cc2[nH]1` [Compound 87], the EC50 [1, 8] was 1250 nM, the EC50 [1, 9] was 950 nM and the EC50 [1, 10] was 1160 nM. The EC50 [1, 11] was 759 nM, the EC50 [1, 12] was 2880 nM and the EC50 [1, 13] was 2630 nM. For the same compound, the EC50 [1, 14] was 1030 nM, the EC50 [2, 15] was 1.12 µM and the EC50 [2, 16] was 3.41 µM. The EC50 [2, 17] was 1.17 µM, the EC50 [2, 18] was 0.522 µM and the EC50 [3, 19] was 1.36 µM. The EC50 [3, 20] was 1.43 µM, the EC50 [3, 21] was 3.65 µM and the EC50 [3, 22] was 0.866 µM. The EC50 (CLK2) was 4.9 nM, the EC50 (all 50 cell lines) was 1830 nM and the EC50 (MDA-MB-231-Luc) was 3050 nM. The EC50 (BT-549) was 1550 nM, the EC50 (MCF7) was 4120 nM and the EC50 (T47D) was 7090 nM. The EC50 (DU4475) was 1370 nM, the EC50 (HCC1599) was 1050 nM and the EC50 (ZR-75-1) was 2960 nM. For the same compound, the EC50 (CAMA1) was 2650 nM, the EC50 (CLK3) was 38.2 nM and the EC50 [4, 23] was 177 nM. It also gave an EC50 [4, 24] of 6940 nM, an EC50 [4, 25] of 4290 nM and an EC50 [5, 26] of 0.538 µM. It also gave an EC50 [5, 27] of 0.542 µM, an EC50 [5, 28] of 0.203 µM and an EC50 [5, 29] of 0.514 µM. It also gave an EC50 [5, 30] of 2.46 µM, an EC50 [5, 31] of 0.21 µM and an EC50 [5, 32] of 1.26 µM. For the same compound, the EC50 [5, 33] was 0.259 µM, the EC50 [5, 34] was 1.16 µM and the EC50 [5, 35] was 0.916 µM. For the same compound, the EC50 [5, 36] was 1.35 µM, the EC50 [5, 37] was 3.93 µM and the EC50 [5, 38] was 0.337 µM. For the same compound, the EC50 [6, 39] was 1480 nM, the EC50 [6, 40] was 1640 nM and the EC50 [6, 41] was 643 nM. The EC50 [6, 42] was 7840 nM, the EC50 [6, 43] was 525 nM and the EC50 [7, 44] was 0.904 µM. The EC50 [7, 45] was 1.32 µM, the EC50 [7, 46] was 0.798 µM and the EC50 [7, 47] was 1.1 µM. The EC50 [7, 48] was 0.394 µM and the EC50 [7, 49] was 1.7 µM.

For `CN1CCCCN(C)c2nccc3[nH]c(nc23)-c2n[nH]c3ccc(cc23)-c2cncc(c2)C1` [Compound 58], the EC50 [1, 8] was 462 nM, the EC50 [1, 9] was 323 nM and the EC50 [1, 10] was 249 nM. For the same compound, the EC50 [1, 11] was 120 nM, the EC50 [1, 12] was 752 nM and the EC50 [1, 13] was 578 nM. The EC50 [1, 14] was 190 nM, the EC50 [2, 15] was 0.177 µM and the EC50 [2, 16] was 0.9 µM. The EC50 [2, 17] was 0.454 µM, the EC50 [2, 18] was 0.103 µM and the EC50 [3, 19] was 0.147 µM. It also gave an EC50 [3, 20] of 0.292 µM, an EC50 [3, 21] of 0.847 µM and an EC50 [3, 22] of 0.162 µM. The EC50 (CLK2) was 1.6 nM, the EC50 (all 50 cell lines) was 441 nM and the EC50 (MDA-MB-231-Luc) was 505 nM. It also gave an EC50 (BT-549) of 480 nM, an EC50 (MCF7) of 1810 nM and an EC50 (T47D) of 1240 nM. The EC50 (DU4475) was 131 nM, the EC50 (HCC1599) was 379 nM and the EC50 (ZR-75-1) was 519 nM. It also gave an EC50 (CAMA1) of 1020 nM, an EC50 (CLK3) of 11.9 nM and an EC50 [4, 23] of 31 nM. It also gave an EC50 [4, 24] of 2110 nM, an EC50 [4, 25] of 1600 nM and an EC50 [5, 26] of 0.106 µM. For the same compound, the EC50 [5, 27] was 0.013 µM, the EC50 [5, 28] was 0.089 µM and the EC50 [5, 29] was 0.074 µM. The EC50 [5, 30] was 1.13 µM, the EC50 [5, 31] was 0.032 µM and the EC50 [5, 32] was 0.271 µM. It also gave an EC50 [5, 33] of 0.067 µM, an EC50 [5, 34] of 0.185 µM and an EC50 [5, 35] of 0.145 µM. It also gave an EC50 [5, 36] of 0.314 µM, an EC50 [5, 37] of 0.921 µM and an EC50 [5, 38] of 0.065 µM. It also gave an EC50 [6, 39] of 179 nM, an EC50 [6, 40] of 313 nM and an EC50 [6, 41] of 121 nM. The EC50 [6, 42] was 1060 nM, the EC50 [6, 43] was 350 nM and the EC50 [7, 44] was 0.15 µM. For the same compound, the EC50 [7, 45] was 0.455 µM, the EC50 [7, 46] was 0.066 µM and the EC50 [7, 47] was 0.132 µM. It also gave an EC50 [7, 48] of 0.057 µM and an EC50 [7, 49] of 0.165 µM.
